Experimental data from patent US10500261B2 (priority 2014, dated 2019).
“Also recorded” adds a separate entry of the source.

Key:
[1] = tested on: HS23/36 CPS conjugate antisera; format: binding, rabbit
[2] = tested on: HS4 CPS conjugate antisera; format: binding, rabbit
[3] = tested on: HS1 CPS conjugate antisera; format: binding, mouse
[4] = tested on: HS3 CPS conjugate antisera; format: binding, mouse

Row | SMILES | recognition by HS23/36 CPS-CRM197 conjugate antiserum [1] | recognition by HS4 CPS-CRM197 conjugate antiserum [2] | recognition by HS1 CPS-CRM197 conjugate antiserum [3] | recognition by HS3 CPS-CRM197 conjugate antiserum [4]
1 | COc1ccc(O[C@H]2O[C@H](CO)[C@H](O)[C@H](O)[C@H]2O)cc1 [α-D-Gal-(1-OMP, 4-methoxyphenyl-α-D-galactopyranoside, reference compound] | No reaction was observed |  |  | 
2 | COc1ccc(O[C@H]2O[C@H](COP(N)(=O)OC)[C@H](O)[C@H](O)[C@H]2O)cc1 (stereo partly drawn) [MeOPN→6-α-D-Galp-(1→OMP, 4-Methoxyphenyl 6-O-methyl-phosphoramidate-α-D-galactopyranoside] | recognized; also recorded: strongly recognized; also recorded: detected | elicited a response equivalent to anti-HS23/36 CRM197 conjugate; also recorded: strongly recognized | reacted to MeOPN-6-Gal, although to a somewhat lesser extent; also recorded: weaker intensity | did not react
